Each structure is given as a SMILES string. Bounds are passed on as bounds.

In this assay the target is T1, APOL1 (Homo sapiens, UniProt O14791).
T1 sequence (O14791 1-398 S342G/I384M): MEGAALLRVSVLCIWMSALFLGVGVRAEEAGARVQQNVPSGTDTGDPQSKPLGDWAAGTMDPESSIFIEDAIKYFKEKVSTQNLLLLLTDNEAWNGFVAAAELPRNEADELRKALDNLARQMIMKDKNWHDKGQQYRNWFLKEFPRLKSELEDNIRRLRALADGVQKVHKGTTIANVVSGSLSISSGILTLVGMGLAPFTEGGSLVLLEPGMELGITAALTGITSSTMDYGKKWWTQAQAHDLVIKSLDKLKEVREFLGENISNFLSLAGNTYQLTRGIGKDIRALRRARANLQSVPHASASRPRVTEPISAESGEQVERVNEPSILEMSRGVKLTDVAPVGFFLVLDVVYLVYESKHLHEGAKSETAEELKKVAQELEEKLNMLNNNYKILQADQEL
The assay can be described thus: MultiTox-Fluor Multiplex Cytotoxicity Assay in tet-inducible APOL1 T-REx-HEK293 cells (cell rescue, ratio of dead to live cells). The assay is classed as cell-based. The note with it: tet-inducible transgenic APOL1 T-REx-HEK293 cell lines, 50 ng/mL tet, 24 hours; read-out: IP50 (i.e., IC50 for cell proliferation). The method in brief: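 T-REx-HEK293 cells with tet-inducible APOL1 were treated with compound (10 μM top, 10-point 3-fold dilution, duplicate) plus 50 ng/mL tetracycline for 24 h at 37° C, in DMEM with 2% tet-free FBS. MultiTox-Fluor protease signals gave a dead/live ratio, normalized to no tet (100% viability) and tet alone (0%).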
Take `C[C@H]1C[C@@]2(CCN1Cc1cn(CCS(C)(=O)=O)nn1)OCCc1sc(C(F)(F)F)cc12` [Compound 525, (2′S,4R)-2′-methyl-1′-[[1-(2-methylsulfonylethyl)triazol-4-yl]methyl]-2-(trifluoromethyl)spiro[6,7-dihydrothieno[3,2-c]pyran-4,4′-piperidine]]: the IC50 is below 100 nM.
As for `CCc1sc2c(c1Br)[C@]1(CCN(Cc3cn(CCS(C)(=O)=O)nn3)[C@@H](C)C1)OCC2` [Compound 526, (2′S,4R)-3-bromo-2-ethyl-2′-methyl-1′-[[1-(2-methylsulfonylethyl)triazol-4-yl]methyl]spiro[6,7-dihydrothieno[3,2-c]pyran-4,4′-piperidine]], the IC50 lay within 100 to 500 nM.
In the case of `[2H]c1c(CC)sc2c1[C@]1(CCN(Cc3cn(CCS(C)(=O)=O)nn3)[C@@H](C)C1)OCC2` [Compound 527, (2′S,4R)-3-deuterio-2-ethyl-2′-methyl-1′-[[1-(2-methylsulfonylethyl)triazol-4-yl]methyl]spiro[6,7-dihydrothieno[3,2-c]pyran-4,4′-piperidine]], the IC50 was below 100 nM.
`C[C@H]1CC2(CCN1Cc1cnn(C)c1)OC(CO)Cc1sc(Cl)cc12` (some centres unmarked) [Compound 530]: the IC50 was below 100 nM.
For `CC(C)C1Cc2sc(Cl)cc2C2(CCN(Cc3cnn(C)c3)[C@@H](C)C2)O1` (some centres unmarked) [Compound 532], the IC50 was in the range of 100 to 500 nM.
Regarding `CCC1Cc2sc(Cl)cc2C2(CCN(Cc3cnn(C)c3)[C@@H](C)C2)O1` (some centres unmarked) [Compound 533], the IC50 lay within 500 to 1000 nM.
Turning to `CC1CO[C@@]2(CCN(Cc3cn(CCS(C)(=O)=O)nn3)[C@@H](C)C2)c2cc(C(F)(F)F)sc21` (stereo partly drawn) [Compound 534, (2S,4R)-2,7′-dimethyl-1-((1-(2-(methylsulfonyl)ethyl)-1H-1,2,3-triazol-4-yl)methyl)-2′-(trifluoromethyl)-6′,7′-dihydrospiro[piperidine-4,4′-thieno[3,2-c]pyran]], the IC50 is below 100 nM.
As to `CCc1cc2c(s1)C(C)COC21CCN(Cc2cn(CCS(C)(=O)=O)nn2)[C@@H](C)C1` (some centres unmarked) [Compound 535], the IC50 is below 100 nM.
`CC1COC2(CCN(Cc3cn(CCS(C)(=O)=O)nn3)[C@@H](C)C2)c2cc(Cl)sc21` (some centres unmarked) [Compound 536]: the IC50 is below 100 nM.
As to `CCc1cc2c(s1)C(C)COC21CCN(Cc2cn(CCS(C)(=O)=O)nn2)[C@@H](C)C1` (some centres unmarked) [Compound 537], the IC50 was below 100 nM.
Regarding `CC1COC2(CCN(Cc3cn(CCS(C)(=O)=O)nn3)[C@@H](C)C2)c2cc(Cl)sc21` (some centres unmarked) [Compound 540], the IC50 was below 100 nM.
Regarding `CC1COC2(CCN(Cc3cn(CCS(C)(=O)=O)nn3)[C@@H](C)C2)c2cc(C(F)(F)F)sc21` (some centres unmarked) [Compound 541], the IC50 is below 100 nM.
Under `C[C@H]1C[C@@]2(CCN1Cc1cnn(C)c1)OCC(O)c1sc(C(F)(F)F)cc12` (stereo partly drawn) [Compound 542, (2′S,4R)-2′-methyl-1′-[(1-methylpyrazol-4-yl)methyl]-2-(trifluoromethyl)spiro[6,7-dihydrothieno[3,2-c]pyran-4,4′-piperidine]-7-ol] stands below 100 nM; under `CC(O)Cn1cc(CN2CC[C@]3(C[C@@H]2C)OCCc2cc(CC(F)F)sc23)nn1` (stereo partly drawn) [Compound 543, 1-[4-[[(2′S, 7R)-2-(2,2-difluoroethyl)-2′-methyl-spiro[4,5-dihydrothieno[2,3-c]pyran-7,4′-piperidine]-1′-yl]methyl]triazol-1-yl]propan-2-ol], below 100 nM; under `C[C@H]1C[C@@]2(CCN1Cc1cn(C(C)(C)CO)nn1)OCCc1cc(CC(F)F)sc12` [Compound 544], 500 to 1000 nM.
As for `C[C@H]1C[C@@]2(CCN1Cc1cn(CCCS(C)(=O)=O)nn1)OCCc1cc(CC(F)F)sc12` [Compound 545], the IC50 is below 100 nM.
`C[C@H]1C[C@@]2(CCN1Cc1cn(CC(C)(CO)CO)nn1)OCCc1cc(CC(F)F)sc12` [Compound 546]: the IC50 was below 100 nM.
For the compound `C[C@H]1C[C@@]2(CCN1Cc1cn(C3CCOCC3)nn1)OCCc1cc(CC(F)F)sc12` [Compound 547], the IC50 is below 100 nM.
The same measure for `C[C@H]1C[C@@]2(CCN1Cc1cn(CC(O)C(C)(C)O)nn1)OCCc1cc(CC(F)F)sc12` (some centres unmarked) [Compound 548]: below 100 nM.
`C[C@H]1C[C@@]2(CCN1C[C@H]1C[C@@H](NS(=O)(=O)CC#N)C1)OCCc1cc(CC(F)F)sc12` [Compound 549, 1-cyano-N-((1R,3s)-3-(((2S,4R)-2′-(2,2-difluoroethyl)-2-methyl-4′,5′-dihydrospiro[piperidine-4,7′-thieno[2,3-c]pyran]-1-yl)methyl)cyclobutyl)methanesulfonamide]: the IC50 is below 100 nM.
`C[C@H]1C[C@@]2(CCN1C[C@H]1C[C@@H](NC(=O)C3CC(F)(F)C3)C1)OCCc1cc(CC(F)F)sc12` [Compound 550]: the IC50 is below 100 nM.
`C[C@H]1C[C@@]2(CCN1C[C@H]1C[C@@H](NC(=O)C3CC3(F)F)C1)OCCc1cc(CC(F)F)sc12` (some centres unmarked) [Compound 551]: the IC50 was below 100 nM.
For the compound `C[C@H]1C[C@@]2(CCN1C[C@H]1C[C@@H](NS(=O)(=O)C3CC3)C1)OCCc1cc(CC(F)F)sc12` [Compound 552], the IC50 is below 100 nM.
Under `CCS(=O)(=O)N[C@H]1C[C@@H](CN2CC[C@]3(C[C@@H]2C)OCCc2cc(CC(F)F)sc23)C1` [Compound 553] stands below 100 nM; under `COC(=O)N[C@H]1C[C@@H](CN2CC[C@]3(C[C@@H]2C)OCCc2cc(CC(F)F)sc23)C1` [Compound 554], below 100 nM; under `Cc1cc(C(=O)N[C@H]2C[C@@H](CN3CC[C@]4(C[C@@H]3C)OCCc3cc(CC(F)F)sc34)C2)on1` [Compound 555], below 100 nM.
In the case of `C[C@H]1C[C@@]2(CCN1C[C@H]1C[C@@H](NC(=O)C3CC3)C1)OCCc1cc(CC(F)F)sc12` [Compound 556], the IC50 is below 100 nM.
Under `C[C@H]1C[C@@]2(CCN1C[C@H]1C[C@@H](NC(=O)C3CCC3)C1)OCCc1cc(CC(F)F)sc12` [Compound 557] stands below 100 nM; under `CC(=O)N[C@H]1C[C@@H](CN2CC[C@]3(C[C@@H]2C)OCCc2cc(CC(F)F)sc23)C1` [Compound 558], below 100 nM.
The same measure for `C[C@H]1C[C@@]2(CCN1Cc1cnn(CCS(C)(=O)=O)c1)OCCc1cc(CC(F)F)sc12` [Compound 559, (2′S, 7R)-2-(2,2-difluoroethyl)-2′-methyl-1′-[[1-(2-methylsulfonylethyl)pyrazol-4-yl]methyl]spiro[4,5-dihydrothieno[2,3-c]pyran-7,4′-piperidine]]: below 100 nM; for `C[C@H]1C[C@@]2(CCN1Cc1ncc(NC(C)(C)CO)cn1)OCCc1cc(CC(F)F)sc12` [Compound 560]: below 100 nM; for `C[C@H]1C[C@@]2(CCN1Cc1cnn(CC(C)(CO)CO)c1)OCCc1cc(CC(F)F)sc12` [Compound 561, 2-[[4-[[(2′S, 7R)-2-(2,2-difluoroethyl)-2′-methyl-spiro[4,5-dihydrothieno[2,3-c]pyran-7,4′-piperidine]-1′-yl]methyl]pyrazol-1-yl]methyl]-2-methyl-propane-1,3-diol]: below 100 nM.
With `C[C@H]1C[C@@]2(CCN1Cc1cc[nH]n1)OCCc1cc(CC(F)F)sc12` [Compound 562], the IC50 was below 100 nM.
With `C[C@H]1C[C@@]2(CCN1Cc1cnn(CCO)c1)OCCc1cc(CC(F)F)sc12` [Compound 563], the IC50 was below 100 nM.
As to `C[C@H]1C[C@@]2(CCN1Cc1ccc3c(c1)n(C)c(=O)n3C)OCCc1cc(CC(F)F)sc12` [Compound 564], the IC50 was below 100 nM.
Turning to `C[C@H]1C[C@@]2(CCN1Cc1cnn(C)c1)OCCc1cc(CC(F)F)sc12` [Compound 565], the IC50 is below 100 nM.
Take `C[C@H]1C[C@@]2(CCN1Cc1cn(C)nn1)OCCc1cc(CC(F)F)sc12` [Compound 566]: the IC50 was below 100 nM.
Turning to `C[C@H]1C[C@@]2(CCN1Cc1cncnc1)OCCc1cc(CC(F)F)sc12` [Compound 567], the IC50 is below 100 nM.
The same measure for `C[C@H]1C[C@@]2(CCN1CC1CC1)OCCc1cc(CC(F)F)sc12` [Compound 568]: below 100 nM.
`C[C@H]1C[C@@]2(CCN1Cc1ccnnc1)OCCc1cc(CC(F)F)sc12` [Compound 569]: the IC50 is below 100 nM.
As to `C[C@H]1C[C@@]2(CCN1Cc1cccc(=O)[nH]1)OCCc1cc(CC(F)F)sc12` [Compound 570], the IC50 was 100 to 500 nM.
The same measure for `C[C@H]1C[C@@]2(CCN1Cc1ccnn1C)OCCc1cc(CC(F)F)sc12` [Compound 571]: 100 to 500 nM; for `CCN1CC[C@]2(C[C@@H]1C)OCCc1cc(CC(F)F)sc12` [Compound 572]: 100 to 500 nM; for `C[C@H]1C[C@@]2(CCN1Cc1cn(C)cn1)OCCc1cc(CC(F)F)sc12` [Compound 573]: 100 to 500 nM.
As to `C[C@H]1C[C@@]2(CCN1Cc1cccn(C)c1=O)OCCc1cc(CC(F)F)sc12` [Compound 574], the IC50 lay within 500 to 1000 nM.
For the compound `C[C@H]1C[C@@]2(CCN1C1COC1)OCCc1cc(CC(F)F)sc12` [Compound 575], the IC50 fell in the range of 500 to 1000 nM.
As to `C[C@H]1C[C@@]2(CCN1CC1CCC1)OCCc1cc(CC(F)F)sc12` [Compound 576], the IC50 was 100 to 500 nM.
Take `C[C@H]1C[C@@]2(CCN1Cc1ccc[nH]c1=O)OCCc1cc(CC(F)F)sc12` [Compound 577]: the IC50 was in the range of 100 to 500 nM.
As for `C[C@H]1C[C@@]2(CCN1Cc1ccn(C)n1)OCCc1cc(CC(F)F)sc12` [Compound 578], the IC50 was below 100 nM.
Regarding `C[C@H]1C[C@@]2(CCN1Cc1ccon1)OCCc1cc(CC(F)F)sc12` [Compound 579], the IC50 is below 100 nM.

These data come from patent US20250171459A1, “2-METHYL-4',5'-DIHYDROSPIRO[PIPERIDINE-4,7'-THIENO[2,3-C]PYRAN] DERIVATIVES AS INHIBITORS OF APOL1 AND METHODS OF USING SAME” (Vertex Pharmaceuticals Incorporated, priority 2022, published 2025).
